Earlier results as cited in US20010039262A1, “Methods and compositions for the treatment of cardiac indications” (priority 2000, published 2001).

Experiments:
patients with severe HF = conditions: spironolactone administered along with captopril and furosemide
[1] = system: patients with stable Congestive Heart Failure (NYHA class II-IV)
[2] = heart failure patients treated with spironolactone

## CC(=O)S[C@@H]1CC2=CC(=O)CC[C@]2(C)[C@H]2CC[C@@]3(C)[C@@H](CC[C@@]34CCC(=O)O4)[C@H]12 [spironolactone]
Patients with severe HF
  reduction of morbidity and mortality: 27%
[1]; 31 patients with stable CHF (NYHA class II-IV), spironolactone vs placebo in addition to diuretics and ACE inhibitor
  morbidity: lowered
[1]; [2]
  early morning rise in heart rate: reduced
  heart rate variability: improved
  vascular collagen turnover: reduced
[1]; spironolactone 50-100 mg/day in addition to diuretics and ACE inhibitor, 8 weeks of active therapy
  reduction in myocardial fibrosis activity: approximately 20%
